# Measurements: patent US10703755B2, “Substituted purine derivative” (SUMITOMO DAINIPPON PHARMA CO., LTD., priority 2016, dated 2020)
# pIC50: −log10 of the molar value.
# Biological target: human TLR7 (Homo sapiens (Human), UniProt Q9NYK1)
# Test: Test for evaluating the inhibition of the activation of human TLR7 (SEAP reporter, TLR7/NF-κB/SEAPorter HEK293 cell)
# Format: cell-based
# Settings: R-848 200 nmol/L; for pIC50: SEAP reporter; for inhibitory effect against TLR7 in the test for evaluating inhibition of the activation of TLR7: SEAP activity, result in words
# Method: As human TLR7 expressing cell line, HEK293 cell line was bought from IMGENEX Corporation (TLR7/NF-ηB/SEAPorter™ HEK293 cell), which is human embryonic kidney cell line and stably expresses full-length human TLR7 gene and secreted alkaline phosphatase (SEAP) reporter gene under the transcriptional control of an NE-ηB response element. The TLR7/NF-ηB/SEAPorter™ HEK293 cell was cultivated with DMEM containing 10% fetal bovine serum (FBS) and 10 μg/mL blasticidin S at 37° C. in the presence of 5% CO2. The TLR7/NF-ηB/SEAPorter™ HEK293 cell was seeded into 96-well microtiter plate at 5×10^4 cell/90 μL/well, and the place was cultivated at 37° C. in a CO2 incubator overnight.
# Each compound prepared in the Examples was evaluated by Test 1.
# human TLR7, sequence (Q9NYK1 27-1049): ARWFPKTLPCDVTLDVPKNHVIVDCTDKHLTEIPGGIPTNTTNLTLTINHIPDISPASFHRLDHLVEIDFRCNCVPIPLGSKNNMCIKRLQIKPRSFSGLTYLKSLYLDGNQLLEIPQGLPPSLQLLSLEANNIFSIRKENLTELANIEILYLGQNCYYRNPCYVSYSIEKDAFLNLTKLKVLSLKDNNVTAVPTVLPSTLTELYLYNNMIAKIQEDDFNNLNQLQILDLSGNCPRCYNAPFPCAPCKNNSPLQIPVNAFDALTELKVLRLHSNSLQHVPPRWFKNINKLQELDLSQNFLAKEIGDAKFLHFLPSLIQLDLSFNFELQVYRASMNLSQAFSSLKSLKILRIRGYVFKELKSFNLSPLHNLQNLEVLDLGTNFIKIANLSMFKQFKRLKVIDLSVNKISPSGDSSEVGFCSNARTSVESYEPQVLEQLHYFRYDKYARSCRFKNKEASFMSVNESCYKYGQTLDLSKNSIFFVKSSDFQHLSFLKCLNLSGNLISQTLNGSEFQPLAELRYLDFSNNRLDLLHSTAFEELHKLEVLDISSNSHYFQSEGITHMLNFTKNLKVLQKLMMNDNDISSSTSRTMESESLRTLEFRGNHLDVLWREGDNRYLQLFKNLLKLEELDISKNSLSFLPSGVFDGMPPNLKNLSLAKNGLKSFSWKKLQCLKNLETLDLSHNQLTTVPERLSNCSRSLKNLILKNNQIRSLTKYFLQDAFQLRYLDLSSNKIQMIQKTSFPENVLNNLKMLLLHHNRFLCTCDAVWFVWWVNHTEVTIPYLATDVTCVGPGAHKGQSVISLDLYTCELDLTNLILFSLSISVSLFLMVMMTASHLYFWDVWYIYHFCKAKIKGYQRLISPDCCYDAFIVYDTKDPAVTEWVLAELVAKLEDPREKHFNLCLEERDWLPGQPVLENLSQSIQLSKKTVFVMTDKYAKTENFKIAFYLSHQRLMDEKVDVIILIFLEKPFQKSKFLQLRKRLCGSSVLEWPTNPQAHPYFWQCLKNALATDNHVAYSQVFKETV
pIC50,inhibitory effect against TLR7 in the test for evaluating inhibition of the activation of TLR7,SMILES
6.07,–,CCOc1nc(C)c2nc(-c3cncc(F)c3)n(Cc3ncc(C4=CN5CCC4CC5)cc3F)c2n1 [Example 359]
6.68,–,CCCOc1nc(N)c2nc(-c3cncc(F)c3)n(Cc3ccc(CN(C)C)cc3)c2n1 [Example 162]
6.70,–,CCOc1nc(C)c2nc(-c3cncc(F)c3)n(Cc3cnn(CCCN(C)C)c3)c2n1 [Example 245]
4.78,–,CN(C)Cc1ccc(Cn2c(-c3cncc(F)c3)nc3c(N)nc(OC4CCOCC4)nc32)cc1 [Example 151]
6.84,–,CCOc1nc(N)c2nc(-c3cncc(F)c3)n(Cc3ccc(CN4CCC(F)(F)CC4)cc3)c2n1 [Example 99]
6.70,–,CCOc1nc(C)c2nc(-c3cncc(F)c3)n(Cc3cnc(C4CCN(C)CC4)cc3OC)c2n1 [Example 375]
6.52,–,CCCCOc1nc(N)c2nc(-c3cncc(F)c3)n(Cc3cccc(CN4CCOCC4)c3)c2n1 [Example 86]
7.21,–,COc1nc(C)c2nc(-c3cncc(F)c3)n(Cc3ccc(C4=CN5CCC4CC5)c(F)c3)c2n1 [Example 357]
5.85,–,CCCCCc1nc(N)c2nc(-c3cncc(OC)c3)n(Cc3ccccc3)c2n1 [Example 27]
7.74,potent inhibitory effect against TLR7,"CCN1CCC(c2ccc(Cn3c(-c4cccnc4)nc4c(C)nc(OC)nc43)c(F)c2)CC1 [Example 293, 9-[4-(1-ethylpiperidin-4-yl)-2-fluorobenzyl]-2-methoxy-6-methyl-8-(pyridin-3-yl)-9H-purine]"
7.72,potent inhibitory effect against TLR7,"CCN1C[C@@H]2C[C@H]1CN2Cc1ccc(Cn2c(-c3cncc(F)c3)nc3c(C)nc(OC)nc32)cc1 [Example 132, 9-(4-{[(1S,4S)-5-ethyl-2,5-diazabicyclo[2.2.1]hept-2-yl]methyl}benzyl)-8-(5-fluoropyridin-3-yl)-2-methoxy-6-methyl-9H-purine]"
7.57,potent inhibitory effect against TLR7,"COc1nc(C)c2nc(-c3cncc(F)c3)n(Cc3ccc(CN4C[C@@H]5C[C@H]4CN5C)cc3)c2n1 [Example 107, 8-(5-fluoropyridin-3-yl)-2-methoxy-6-methyl-9-(4-{[(1S,4S)-5-methyl-2,5-diazabicyclo[2.2.1]hept-2-yl]methyl}benzyl)-9H-purine]"
5.18,–,CCCCOc1nc(C)c2nc(-c3cncc(OC)c3)n(Cc3ccccc3)c2n1 [Example 142]
6.12,–,CCOc1nc(N)c2nc(-c3cncc(F)c3)n(Cc3ccc(CN4CCCC4)cc3)c2n1 [Example 104]
6.09,–,CCOc1nc(N)c2nc(-c3cncc(F)c3)n(Cc3ccc(CN(C)CC(F)F)cc3)c2n1 [Example 102]
6.10,–,CCCCOc1nc(N)c2nc(-c3cncc(C)c3)n(Cc3cccc(CN(C)C)c3)c2n1 [Example 85]
5.85,–,CCCCOc1nc(N)c2nc(-c3cncc(COC)c3)n(Cc3ccccc3)c2n1 [Example 19]
5.89,–,CCOc1nc(C)c2nc(-c3cncc(F)c3)n(Cc3ccc(CO)cc3)c2n1 [Example 78]
7.24,potent inhibitory effect against TLR7,CCOc1nc(C)c2nc(-c3cncc(F)c3)n(Cc3ccc(C4CN(C)CCO4)cc3F)c2n1 (stereo not shown) [Example 307]
6.58,–,CCOc1nc(C)c2nc(-c3cncc(F)c3)n(Cc3cnn(CC4CN(C)CCO4)c3)c2n1 (stereo not shown) [Example 272]
6.40,–,CCCCOc1nc(N)c2nc(-c3cncc(F)c3)n(Cc3ccc(CN(C)C)cc3)c2n1 [Example 82]
7.62,potent inhibitory effect against TLR7,CCOc1nc(C)c2nc(-c3cncc(F)c3)n(Cc3cnn(CC4CCCN(C)C4)c3)c2n1 (stereo not shown) [Example 276]

pIC50,inhibitory effect against TLR7 in the test for evaluating inhibition of the activation of TLR7,SMILES
5.54,–,CN(C)Cc1ccc(Cn2c(-c3cncc(F)c3)nc3c(N)nc(OCC4CCOCC4)nc32)cc1 [Example 152]
6.92,–,"CCOc1nc(N)c2nc(-c3cncc(F)c3)n(Cc3ccc(COCCN(C)C)cc3)c2n1 [Example 140, 9-(4-{[2-(Dimethylamino)ethoxy]methyl}benzyl)-2-ethoxy-8-(5-fluoropyridin-3-yl)-9H-purine-6-amine]"
7.07,potent inhibitory effect against TLR7,COc1nc(C)c2nc(-c3cncc(F)c3)n(Cc3ccc(CN4C[C@@H]5C[C@H]4CN5)cc3)c2n1 [Example 125]
5.80,–,CCOc1nc(C)c2nc(-c3cncc(F)c3)n(Cc3cnc(C4=CN5CCC4CC5)cc3OC)c2n1 [Example 355]
7.54,potent inhibitory effect against TLR7,CCN1CC(COc2ccc(Cn3c(-c4cncc(F)c4)nc4c(C)nc(OC)nc43)c(F)c2)C1 [Example 287]
8.10,potent inhibitory effect against TLR7,"CCOc1nc(C)c2nc(-c3cncc(F)c3)n(Cc3ccc(CN4C[C@@H]5C[C@H]4CN5C)cc3F)c2n1 [Example 313, 2-ethoxy-9-(2-fluoro-4-{[(1S,4S)-5-methyl-2,5-diazabicyclo[2.2.1]hept-2-yl]methyl}benzyl)-8-(5-fluoropyridin-3-yl)-6-methyl-9H-purine]"
5.59,–,CCOc1nc(N)c2nc(-c3cncc(F)c3)n(Cc3ccc(C(=O)N4CCC(C)CC4)cc3)c2n1 [Example 144]
5.80,–,CCOc1nc(N)c2nc(-c3cncc(F)c3)n(Cc3ccc(CN4CC(C#N)C4)cc3)c2n1 [Example 103]
4.74,–,CCCCOc1nc(N)c2nc(-c3ccccn3)n(Cc3ccccc3)c2n1 [Example 35]
7.15,potent inhibitory effect against TLR7,CCOc1nc(N)c2nc(-c3cncc(F)c3)n(Cc3ccc(CN4CCCCC4)cc3)c2n1 [Example 98]
5.60,–,COCCOc1nc(N)c2nc(-c3cncc(F)c3)n(Cc3ccc(CN(C)C)cc3)c2n1 [Example 87]
7.05,–,COc1nc(C)c2nc(-c3cncc(F)c3)n(Cc3ccc(OCC4CNC4)cc3F)c2n1 [Example 434]
5.96,–,CCCCOc1nc(N)c2nc(-c3cncc(Cl)c3)n(Cc3ccccc3)c2n1 [Example 17]
7.03,–,COc1nc(C)c2nc(-c3cncc(F)c3)n(Cc3ccc(C4CCN(C(=O)OC(C)(C)C)CC4)cc3F)c2n1 [Example 385]
5.11,–,CCCCOc1nc(N)c2nc(-c3ccncc3)n(Cc3ccccc3)c2n1 [Example 4]
5.70,–,CCOc1nc(N)c2nc(-c3cncc(F)c3)n(Cc3cc(OC)ccc3F)c2n1 [Example 43]
7.60,potent inhibitory effect against TLR7,"CCOc1nc(C)c2nc(-c3cncnc3)n(Cc3ccc(CN4C[C@@H]5C[C@H]4CN5C)cc3F)c2n1 [Example 312, 2-ethoxy-9-(2-fluoro-4-{[(1S,4S)-5-methyl-2,5-diazabicyclo[2.2.1]hept-2-yl]methyl}benzyl)-6-methyl-8-(pyrimidin-5-yl)-9H-purine]"
4.86,–,COCCOc1nc(N)c2nc(-c3cncc(OC)c3)n(Cc3ccccc3)c2n1 [Example 24]
8.10,potent inhibitory effect against TLR7,COc1nc(C)c2nc(-c3cncc(F)c3)n(Cc3ccc(C4CCNCC4)cc3F)c2n1 [Example 431]
7.55,potent inhibitory effect against TLR7,CCOc1nc(C)c2nc(-c3cncc(F)c3)n(Cc3cnn(CCN4CCN(C)CC4)c3)c2n1 [Example 300]
7.74,potent inhibitory effect against TLR7,"COc1nc(C)c2nc(-c3cncc(F)c3)n(Cc3ccc(CN4CCC4)cc3F)c2n1 [Example 260, 9-[4-(azetidin-1-ylmethyl)-2-fluorobenzyl]-8-(5-fluoropyridin-3-yl)-2-methoxy-6-methyl-9H-purine]"

SMILES,pIC50,inhibitory effect against TLR7 in the test for evaluating inhibition of the activation of TLR7
COc1nc(C)c2nc(-c3cncc(F)c3)n(Cc3ccc(C4CN5CCC4CC5)cn3)c2n1 (stereo not shown) [Example 371],6.58,–
COc1nc(C)c2nc(-c3ccc(C(N)=O)nc3)n(Cc3ccc(OC4CN5CCC4CC5)cc3F)c2n1 (stereo not shown) [Example 439],6.87,–
CCOc1nc(C)c2nc(-c3cncc(F)c3)n(Cc3cnc(C4CN5CCC4CC5)cc3C)c2n1 (stereo not shown) [Example 330],6.67,–
COc1nc(C)c2nc(-c3ccc(C)nc3)n(Cc3ccc(C4CN5CCC4CC5)cc3F)c2n1 (stereo not shown) [Example 306],7.40,potent inhibitory effect against TLR7
"COc1nc(C)c2nc(-c3cncc(C#N)c3)n(Cc3ccc(C4CN5CCC4CC5)cc3F)c2n1 (single isomer, unassigned) [Example 402, 5-{9-[4-(1-azabicyclo[2.2.2]oct-3-yl)-2-fluorobenzyl]-2-methoxy-6-methyl-9H-purin-8-yl}pyridine-3-carbonitrile]",6.88,–
CCOc1nc(C)c2nc(-c3cncc(F)c3)n(Cc3ccc(C4CN5CCC4CC5)cc3C#N)c2n1 (stereo not shown) [Example 384],6.57,–
CCOc1nc(C)c2nc(-c3cncc(F)c3)n(Cc3ccc(C4CN5CCC4CC5)nc3C#N)c2n1 (stereo not shown) [Example 382],6.24,–
CCOc1nc(N)c2nc(-c3cncc(F)c3)n(Cc3ccc(O[C@H]4CN5CCC4CC5)cc3)c2n1 [Example 67],7.29,potent inhibitory effect against TLR7
CCOc1nc(C)c2nc(-c3cncc(F)c3)n(Cc3cnn(C4CN5CCC4CC5)c3)c2n1 (stereo not shown) [Example 167],6.96,–
